“And” between values parts separate entries of the source, which are not always exact repeats. Equal values may be shown once. Read-outs that look alike come from different tables or passages of the source.
How the values were obtained:
[1] = Blood to plasma ratio (B/P) in fresh mouse blood; format: in vitro ADME; details: 1 µM, 37 °C
Protocol: Fresh mouse blood (800 µL) was incubated in a water bath maintained at 37 °C for 10 min prior to drug spiking. Blood was spiked with the drug at concentrations of 1 µM to maintain organic content < 1%. Aliquots of 50 µL were collected at different time points (0, 30, and 60 min) for blood analysis as well an additional sample of 120 µL was collected into a micro-centrifuge tube and centrifuged at 4000× g for 10 min at 4 °C to separate 50 µL plasma for analysis. For matrix match and calibration, blank plasma of 50 µL was added to the collected blood aliquot, and 50 µL of blank blood was added to the extract of 50 µL plasma. The whole blood and plasma samples were further processed by PPT as described above. The analyte peak area ratios were used to calculate the (B/P) ratio using Equation (5). (5) (B/P) ratio=Blood Concentration /Plasma Concentration

[2] = Thermodynamic aqueous solubility in PBS; format: physicochemical
Protocol: After completion of incubation, the microcentrifuge tube was centrifuged at 10,000× g for 10 min. The supernatant (100 μL) was mixed with an equal volume of ACN and centrifuged again at 10,000× g for 10 min. The supernatant was further diluted 80× times with mobile phase and transferred to autosampler vials and analyzed by LC-MS/MS.

[3] = Tissue distribution after single IP dose in CD-1 mice; format: in vivo, mouse; details: for concentration at 2 h: female, CD-1, mouse, 2 h after single IP 5 mg/kg
Protocol: MO-OH-Nap was dissolved in a 5% DMSO, 45% w/v hydroxypropyl-β-cyclodextrin solution in PBS (final concentration 0.625 mg/mL MO-OH-Nap). MO-OH-Nap (5 mg/kg) was administered IP. After dosing, approximately 100 µL of blood was collected in Lithium-Heparin-Microvette 300 µL Capillary Blood Collection Tube (SARSTEDT AG& Co., Nümbrecht, Germany) from the maxillary vein at 5, 15, 30 min and 1, 2, 4, 6, 8, 24, and 48 h. Two blood time points were collected from every mouse and the third time point was the terminal time point, for a total of three time points from each mouse (5 mice/group/per time point). Blood was centrifuged at 4000× g at 4 °C for 10 min to extract plasma. The collected plasma samples were stored at −80 °C until analysis. The specified tissues including liver, lungs, kidney, spleen, heart, and brain were collected at terminal times of 2, 8, 24 and 48 h after dosing. Tissue samples were rinsed with PBS to remove excess blood and blotted with filter paper. After weighing, each tissue sample was individually homogenized with de-ionized water using a TissueLyser II (Qiagen Science, Louisville, KY, USA). A dilution factor of five was used for liver, spleen, brain, lungs, and kidney while the heart was homogenized at a 6-fold dilution factor. All tissues were stored at −80 °C until analysis. Plasma concentrations (ng/mL) and tissue concentrations (ng/g) were determined for each time point collected using LC-MS/MS analysis.

CD-1 mice = tested on: CD-1 mice; set-up: method as in PMID 30612055; details: up to 9.4 mg/kg intravenously three times weekly; cited from earlier work
[4] = Gastrointestinal fluid stability (SGF, SIF, PBS); format: physicochemical; details: 37 °C, 1 µg/mL
Protocol: The gastric stability of MO-OH-Nap was determined at different physiological pH conditions using simulated gastric/intestinal fluid (SGF/SIF) or PBS (pH7.4) prepared with USP specifications. Briefly, simulated gastric fluid (SGF), pH 1.2, was prepared by dissolving […] of sodium chloride (NaCl) and 3.2 g of pepsin in 7 mL hydrochloric acid (HCl) and a sufficient amount of water to make 1000 mL. The simulated intestinal fluid (SIF), pH 6.8, was prepared by dissolving 6.805 g of monobasic potassium phosphate in 250 mL of water. Then 77 mL of 0.2 N sodium hydroxide (NaOH) was mixed with 500 mL water and 10 g of pancreatin, then made up to 1000 mL. The SIF solution is adjusted to pH 6.8 ± 0.1 with either 0.2 N NaOH or 0.2 N HCl. MO-OH-Nap at 1 µg/mL concentration was incubated with SGF, SIF and PBS (100 mM pH 7.4) at 37 °C on a shaking water bath, n = 3. Samples (100 µL) were collected at 0, 15, 30, 60, and 120 min. Immediately after sample collection, 300 µL ACN was added as a quenching solvent to stop chemical degradation. IS solution (10 µL from 1 µg/mL stock) was added to each sample, vortexed the centrifuged at 14,000 rpm (22,000× g) and 4 °C, and then transferred to HPLC vial for LC-MS/MS analysis. Stability was determined through the percentage of the parent drug remaining at different time points relative to the parent drug at 0 min (100% parent).

[5] = In vitro metabolic stability in mouse liver microsomes; format: in vitro ADME; details: MLM
Protocol: Metabolic stability was assessed using mouse, rat, and human liver microsomes (XenoTech, LLC, Lenexa, KS, USA) for phase I metabolism. Briefly, A reaction solution was prepared by mixing […] of PBS (100 mM, pH 7.4), 25 µL of microsomal protein (20 mg/mL), MgCl2 (5 µL; 10 mM), and 50 µL of NADPH (2 mM). The final volume (0.5 mL) was pre-incubated for 10 min in a 37 °C water bath at 60 rpm. An aliquot of MO-OH-Nap (2 µL from 1 µg/mL stock) was spiked into the above solution to initiate the reaction. Aliquots of (50 µL) were collected at time intervals (0, 5, 15, 20, 30, 45, and 60 min) and quenched with 300 µL of ACN, […]. Afterwards, 10 µL of IS stock (1.0 µg/mL) was spiked in each sample then vortexed (5 min) and centrifuged at 10,800 rpm (13,000× g) for 15 min. Samples were vortexed and centrifuged at 10,800 rpm (13,000× g) for 15 min, the supernatant was collected and transferred to an HPLC vial and 10 µL were injected into the LC-MS/MS system. Testosterone and diclofenac were used as positive and negative controls to ensure that liver microsomes and incubation conditions were appropriate for conducting metabolism studies.

O=c1c(O)ccccc1-c1ccc2ccccc2c1 [MO-OH-Nap, MO-OH-Nap tropolone]
B/P Ratio ([1]; 0 min): 1.1 ± 0.1
B/P Ratio ([1]; 30 min): 0.9 ± 0.2
B/P Ratio ([1]; 60 min): 1.0 ± 0.12
solubility class per USP ([2]; PBS pH 7.4): partially soluble and very slightly soluble
solubility at 24 h ([2]; phosphate buffered saline (PBS), PBS pH 7.4, 24 h): 20.2 µg/mL and 80.1 µM
detection in all harvested tissue ([3]; 48 h after single IP 5 mg/kg): detected
concentration at 2 h ([3]; brain, read-out: tissue concentration, brain): 51 ng/g
concentration at 2 h ([3]; heart, read-out: tissue concentration, heart): 115 ng/g
concentration at 2 h ([3]; kidney, read-out: tissue concentration, kidney): 750 ng/g
concentration at 2 h ([3]; liver, read-out: tissue concentration, liver): 1390 ng/g
concentration at 2 h ([3]; lungs, read-out: tissue concentration, lungs): 181 ng/g
concentration at 2 h ([3]; spleen, read-out: tissue concentration, spleen): 745 ng/g
tolerability (blood counts, renal and hepatic functions, body weight) (CD-1 mice): well-tolerated
drug remaining ([4]; PBS pH 7.4, 120 min): > 80%
drug remaining ([4]; SGF pH 1.2, 120 min): > 80%
drug remaining ([4]; SIF pH 6.8, 120 min): > 80%
metabolic depletion ([5]; NADPH, 60 min): < 15%
parent drug remaining ([5]; all time points to 60 min): > 95%
